Results on eight compounds are retold here after PubChem BioAssay (NCI).

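Cultured in 96-well plates, cells were exposed to test compound for 48 hours across five concentrations. Abbreviation: GI50, concentration required for 50% inhibition of growth. TGI is the concentration that stops growth completely.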 Bounds are passed on as bounds.

Experiment in all cases: growth of human tumour cells (NCI), 48 h
Assay [1] has as its system MDA-MB-435.
Assay [2] has as its system HOP-62 NSCLC.
Assay [3] relates to HCT-116 colon.
Assay [4] has as its system HS 578T breast.
For assay [5], the system named is U251 CNS.
For assay [6], the system named is HOP-92 NSCLC.
In assay [7] the test system is NCI-H226 lung.
Assay [8] relates to SF-539 CNS.
The test system of assay [9] is SF-295 CNS.
Assay [10] deals with SW-620 colon.

Take `NCCSSCCN`: the TGI in assay [1], in assay [2], in [3], in assay [4], in assay [5] and in assay [6] was > 100 µM in each case. Also, the TGI in [7], in [8], in assay [9] and in assay [10] was > 100 µM in each case.
As for `COc1cc2ncn(-c3cc(OCc4ccccc4C(F)(F)F)c(C(=O)N(C)C)s3)c2cc1OC`, the GI50 in [1] is > 25 µM; in assay [2] it was > 13.5 µM; in assay [3], > 25 µM; in assay [4] it was > 25 µM; in assay [5] it was > 25 µM; in assay [6] it was 6.66 µM. In addition, the GI50 in [7] was 5.85 µM; in assay [8] it was > 25 µM; in [9], > 22.6 µM; in [10], > 25 µM. Besides, the TGI is > 25 µM in assay [1]; > 25 µM in assay [2]; > 25 µM in assay [3]; > 25 µM in assay [4]; > 25 µM in assay [5]; > 23.9 µM in assay [6]. The TGI is > 12.5 µM in assay [7], > 25 µM in assay [8], > 25 µM in assay [9] and > 25 µM in [10].
On to `CS(=O)(=O)CCNCc1cc(-c2cc3c(Nc4ccc(OCc5cccc(F)c5)c(Cl)c4)ncnc3s2)cs1`, for which the GI50 was 11 µM in assay [1]; > 16.8 µM in assay [2]; 12 µM in assay [3]; 4.67 µM in [4]; 9.34 µM in [5]; 4.34 µM in [6]. For the same compound, the GI50 in [7] is 15.1 µM; in [8], 9.92 µM; in [9], 9.89 µM; in [10], 15 µM. The TGI is > 25 µM in [1]; > 25 µM in [2]; > 25 µM in [3]; > 17.6 µM in assay [4]; > 25 µM in assay [5]; > 25 µM in assay [6]. For the same compound, the TGI in [7], in [8], in assay [9] and in assay [10] was > 25 µM throughout.
Consider `COc1ccc2c(=O)cc(-c3ccccc3)[nH]c2c1`, for which the GI50 in assay [1] is 0.18 µM; in [2], 9.74 µM; in assay [3], 0.446 µM; in assay [4] it was 0.758 µM; in assay [5] it was 0.707 µM; in assay [6] it was 0.378 µM. Besides, the GI50 in assay [7] was 2.14 µM; in assay [8] it was 0.584 µM; in [9], 0.33 µM; in assay [10] it was 0.444 µM. The TGI in [1] was 0.523 µM; in assay [2], > 100 µM; in assay [3], > 100 µM; in [4] it was > 100 µM; in assay [5], > 100 µM; in assay [6], > 100 µM. For the same compound, the TGI in assay [7] was > 100 µM; in assay [8] it was 3.37 µM; in assay [9] it was 1.84 µM; in assay [10], > 100 µM.
Take `O=C(/C=C/C12c3ccccc3C(c3ccccc31)C1C(=O)NC(=O)C12)c1ccc(Cl)cc1Cl` (stereo not given): the GI50 was 1.98 µM in assay [1]; 2.06 µM in assay [2]; 1.61 µM in assay [3]; 2.76 µM in assay [4]; 1.68 µM in [5]; 1.5 µM in [6]. The GI50 is 2.14 µM in [7], 1.59 µM in [8], 1.78 µM in assay [9] and 2.19 µM in assay [10]. The TGI in assay [1] worked out at 4.06 µM; in assay [2], 4.71 µM; in [3] it was 3.05 µM; in assay [4], 7.01 µM; in [5] it was 3.06 µM; in assay [6] it was 3.3 µM. The TGI in [7] worked out at 5.91 µM; in assay [8], 2.96 µM; in assay [9] it was 3.63 µM; in assay [10], 4.58 µM.
As to `O=C(Nc1cc(C(F)(F)F)ccc1Cl)c1ccc(NC2=C(Cl)C(=O)N(Cc3ccccc3)C2=O)cc1`, the GI50 in assay [1] is 29.5 µM; in assay [2], > 100 µM; in assay [3], 17.2 µM; in [4] it was 31.9 µM; in assay [5], 22.6 µM; in assay [6], 15.7 µM. The GI50 in assay [7] is 13.9 µM; in [8] it was 28.9 µM; in assay [9], 40.1 µM; in [10], 6.72 µM. In addition, the TGI is > 100 µM in [1]; > 100 µM in [2]; > 100 µM in assay [3]; > 100 µM in assay [4]; > 100 µM in [5]; 56.3 µM in [6]. Also, the TGI was 65.5 µM in assay [7], 77.5 µM in [8], > 100 µM in assay [9] and > 100 µM in [10].
On to `Cc1ncc(C(=O)Nc2ccc(CN3CCN(C)CC3)c(C(F)(F)F)c2)cc1C#Cc1cnc2cccnn12`, for which the GI50 in assay [1] is 0.243 µM; in assay [2] it was 0.423 µM; in assay [3] it was 0.178 µM; in [4], 0.625 µM; in assay [5], 0.727 µM; in [6] it was 0.253 µM. The GI50 was 0.204 µM in assay [7], 0.485 µM in assay [8], 1.01 µM in [9] and 0.239 µM in assay [10]. Moreover, the TGI in assay [1] amounted to 1.48 µM; in assay [2] it was 4.14 µM; in assay [3] it was 0.743 µM; in assay [4], 3.3 µM; in assay [5], 2.6 µM; in [6], 2.87 µM. Besides, the TGI in assay [7] amounted to 1.37 µM; in assay [8], 1.18 µM; in assay [9], 4.71 µM; in assay [10], 2.59 µM.
In the case of `CCC(O)c1ccc(Br)cc1NC(=O)c1cccc(Cl)c1` (stereo not given), the GI50 in [1] was 16.9 µM; in assay [2] it was 20 µM; in assay [3], 14.2 µM; in [4], 24.6 µM; in [5] it was 14.1 µM; in assay [6], 12.1 µM. The GI50 in assay [7] is 21.5 µM; in assay [8], 31.8 µM; in assay [9], 15 µM; in assay [10], 26.6 µM. For the same compound, the TGI in assay [1] is 35 µM; in assay [2], 44.6 µM; in assay [3], 46.6 µM; in assay [4] it was > 100 µM; in [5], 31.8 µM; in assay [6] it was 65.6 µM. For the same compound, the TGI in assay [7] is 64.6 µM; in assay [8], > 100 µM; in assay [9] it was 35.1 µM; in assay [10], 99.6 µM.
